Reference: patent US20090202508A1, “NEGATIVE REGULATION OF HYPOXIA INDUCIBLE FACTOR 1 BY OS-9” (THE JOHNS HOPKINS UNIVERSITY, priority 2004, published 2009)
Each block holds one molecule with its values, some of them ahead of it. Peptide text beside a SMILES is read from it. * marks the point of attachment. Cbz = O=C(OCc1ccccc1)*

Assays:
PHD2 [1] = target: T1, PHD2 (Homo sapiens, UniProt Q9GZT9); experiment: Prolyl hydroxylation assay / in vitro VHL binding assay with GST-HIF-1α (531-826); type: biochemical; conditions: lysates of PHD2/OS-9 transfected 293 cells; 1 mM DMOG; FIG. 7A
T1 construct: expressed in transfected cells; host or cells: 293 cells (whole cell lysate used as the enzyme source)
T1 sequence (Q9GZT9 whole entry): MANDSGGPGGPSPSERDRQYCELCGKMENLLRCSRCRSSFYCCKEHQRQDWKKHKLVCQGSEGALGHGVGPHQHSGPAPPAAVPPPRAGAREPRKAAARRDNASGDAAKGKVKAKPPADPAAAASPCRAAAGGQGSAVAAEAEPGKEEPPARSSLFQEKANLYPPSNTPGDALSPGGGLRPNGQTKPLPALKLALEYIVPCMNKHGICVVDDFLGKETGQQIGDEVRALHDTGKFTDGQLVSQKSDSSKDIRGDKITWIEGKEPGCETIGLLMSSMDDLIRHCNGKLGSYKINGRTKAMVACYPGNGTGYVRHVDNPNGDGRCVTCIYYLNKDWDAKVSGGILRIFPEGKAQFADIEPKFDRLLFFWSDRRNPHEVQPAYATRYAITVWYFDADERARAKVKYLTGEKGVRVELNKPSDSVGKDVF
Method: [^35S]methionine-labeled VHL protein was synthesized in vitro and GST-HIF-1α (531-826) fusion protein (GstA) was expressed in E. coli. 293 cells were transfected with empty, PHD2, or OS-9 expression vector. After 24 h, cells were washed twice with cold hypotonic extraction buffer containing 20 mM Tris (pH 7.5), 5 mM KCl, 1.5 mM MgCl2, 1 mM dithiothreitol and lysed with hypotonic extraction buffer in a Dounce homogenizer. The cell extract was centrifuged at 10,000×g for 10 min at 4° C., and the supernatant was stored in aliquots at −70° C. GstA (4 μg) was preincubated with whole cell lysate (50 μg) in a total volume of 50 μl with PBS-T at 30° C. for 10 min with or without 1 mM dimethyloxalyl glycine (DMOG). The reaction was terminated by addition of desferrioxamine to 1 mM. One aliquot (0.5 μg of GstA) was used for immunoblot assay using anti-hydroxyproline-564 HIF-1α antibody (Chan et al., 2002). The remainder ([…] of GstA) was used for in vitro VHL binding assay.
(§1) For in vitro VHL binding assay, preincubated GstA and 5 μl of [^35S]methionine-labeled VHL protein were mixed in a total volume of 300 μl of PBS-T with 1 mM desferrioxamine and incubated at 4° C. for 90 min. 20 ul of glutathione-Sepharose-4B beads (Amersham Biosciences) was added and incubated for 30 min with rotation. Beads were washed three times with PBS-T. Proteins were eluted in Laemmli sample buffer, fractionated by SDS-PAGE, and detected by autoradiography. For PHD binding assay, […] of GST-HIF-1α was preincubated with 50 μg of -whole cell lysate in a total volume of 50 μl with PBS-T at 30° C. for 10 min with or without 1 mM DMOG. The reaction was terminated by addition of desferrioxamine to 1 mM, 20 μl of glutathione-Sepharose-4B beads were added and incubated for 30 min. The beads were washed three times with PBS-T. Bound protein was eluted in Laemmli sample buffer, fractionated by SDS-PAGE, and subjected to immunoblot assay using antibodies against PHD2 (Novus Biologicals Inc.) or GST (Amersham).

PHD2 [2] = target: T1, PHD2; experiment: PHD binding assay (pull down of PHD2 with GST-HIF-1α (531-826)); conditions: lysates of transfected 293 cells; 1 mM DMOG; FIG. 7B
Method: as §1

HIF-1α = HIF-1α protein levels by immunoblot in transfected 293 cells; type: cell-based, human; conditions: 293 cells co-transfected with HA-OS-9 and HIF-1α; MG132 10 μM; FIG. 4A
Method: 293 or Hep3B cells were seeded onto 24-well plates at 8×10^4 cells per well of a 24-well plate. The following day, the cells were transfected with plasmid DNAs using Fugene-6 (Roche) for 293 and Lipofectamine Plus (Invitrogen) for Hep3B cells. After 24 h, the cells were exposed to 20% or 1% O2 for 24 h. Cells were lysed, and the luciferase activities were determined by multi-well luminescence reader (PerkinElmer), using the Dual-Luciferase Reporter Assay System (Promega). For p2.1 reporter assay, cells were co-transfected with 15 ng of control reporter pSV-Renilla, 135 ng of HIF-1 reporter p2.1, and expression vector encoding HA-OS-9, HIF-1α, or empty vector. Unless indicated otherwise, 200 ng of HIF-1α, 400 ng of HA-OS-9, 1 ng of PHD2, or 1 ng of HIF-1α triple mutant P402A/P564A/N803A (HIF-1α TM) expression vector was used for co-transfection. For pGalA reporter assays, Hep3B cells were co-transfected with 12.5 ng of pSV-Renilla, reporter 200 ng of pG5ElbLuc, 100 ng of expression vector encoding the GAL4 DNA-binding domain alone or fused to HIF-1α residues 531-826 (Jiang et al. 1997) and empty vector or vector encoding HA-OS-9. For immunoblot assays, 293 cells were seeded at 3×10^6 cells per 10-cm plate. The following day, the cells were co-transfected with expression vectors using Fugene-6. After 24 h, the cells were exposed to 20% or 1% O2 with or without MG132 (10 μM) for 8 h and lysed in 200 μl of lysis buffer containing 50 mM Tris-Cl (pH 8.0), 150 mM NaCl, 5 mM EDTA, 0.1% SDS, 1% NP-40, 0.5% sodium deoxycholate, Complete protease inhibitor cocktail (Roche), sodium orthovanadate, and sodium vanadate (Sigma).

[3] = target: T2, HA-OS-9 (hemagglutinin epitope-tagged human OS-9) (human, UniProt Q13438 1-667, 35S-methionine labelled when in vitro-translated); experiment: GST pull-down of 35S-labelled in vitro-translated HA-OS-9, SDS-PAGE and autoradiography
T2 construct: In vitro-translated in reticulocyte lysate (pull-downs) or expressed in transfected 293 cells (co-IP, lysates); also called HA-tagged OS-9; in vitro-translated OS-9
T2 sequence (looked up): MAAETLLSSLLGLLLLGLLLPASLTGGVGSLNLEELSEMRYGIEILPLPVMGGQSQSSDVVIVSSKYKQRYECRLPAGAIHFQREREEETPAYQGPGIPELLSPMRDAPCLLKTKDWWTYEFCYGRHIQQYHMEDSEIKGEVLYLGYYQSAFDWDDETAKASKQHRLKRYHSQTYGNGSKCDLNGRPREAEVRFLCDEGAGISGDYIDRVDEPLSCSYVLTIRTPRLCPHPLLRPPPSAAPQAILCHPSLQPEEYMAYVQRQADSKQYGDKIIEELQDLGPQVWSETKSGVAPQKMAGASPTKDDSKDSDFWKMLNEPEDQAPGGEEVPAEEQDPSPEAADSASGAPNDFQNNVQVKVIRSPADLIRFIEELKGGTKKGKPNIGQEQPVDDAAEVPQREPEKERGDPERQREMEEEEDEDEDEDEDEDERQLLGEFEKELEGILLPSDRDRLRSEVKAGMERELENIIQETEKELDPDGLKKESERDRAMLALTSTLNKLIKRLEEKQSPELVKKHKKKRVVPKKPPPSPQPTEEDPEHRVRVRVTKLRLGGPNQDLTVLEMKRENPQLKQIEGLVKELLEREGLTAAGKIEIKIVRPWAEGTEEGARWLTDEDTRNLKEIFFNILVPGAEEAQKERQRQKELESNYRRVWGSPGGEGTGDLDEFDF

- binding of VHL to GST-HIF-1α (531-826) (PHD2 [1]): completely blocked
- binding of PHD2 to GST-HIF-1α (531-826) (PHD2 [2]): further increased
Molecule: COC(=O)CNC(=O)C(=O)OC [DMOG, dimethyloxalylglycine, reference compound]

Molecule: CC(C)C[C@@H](C=O)NC(=O)[C@H](CC(C)C)NC(=O)[C@H](CC(C)C)NC(=O)OCc1ccccc1 [MG 132, reference compound] (Cbz-Leu-Leu-Leu-aldehyde)
- reduction in HIF-1α protein levels associated with OS-9 co-expression (HIF-1α): blocked

- binding result [3]: no binding
B1: GST-HIF-1α (786-826) (other, UniProt Q16665 786-826, looked up)
chain: SMDESGLPQLTSYDCEVNAPIQGSRNLLQGEELLRALDQVN
notes: Expressed in E. coli; not shown: glutathione-S-transferase (GST) from a pGEX expression vector

- binding result [3]: no binding
B2: GST-HIF-1α (429-608) (other, UniProt Q16665 429-608, looked up)
chain: PLYNDVMLPSPNEKLQNINLAMSPLPTAETPKPLRSSADPALNQEVALKLEPNPESLELSFTMPQIQDQTPSPSDGSTRQSSPEPNSPSEYCFYVDSDMVNEFKLELVEKLFAEDTEAKNPFSTQDTDLDLEMLAPYIPMDDDFQLRSFDQLSPLESSSASPESASPQSTVTVFQQTQIQ
notes: as for B1

- binding result [3]: no binding
B3: GST-HIF-1α (531-610) (other, UniProt Q16665 531-610, looked up)
chain: FKLELVEKLFAEDTEAKNPFSTQDTDLDLEMLAPYIPMDDDFQLRSFDQLSPLESSSASPESASPQSTVTVFQQTQIQEP
notes: as for B1
